Source: ChEMBL document CHEMBL1201862, “PubChem BioAssay data set” (2004)
The source made the active and inactive calls.

What was measured:
[1] = target: Transthyretin (Homo sapiens, UniProt P02766); experiment: Luminescence-based cell-based high throughput dose response assay to identify activators of Transthyretin (TTR) transcription.; format: functional
[2] = viability loss in MITF-independent A375 cells – cell-based, CellTiter-Glo luminescence, dry powder, set 7, counter-screen for MITF inhibitor project, dose response (AID 624490); format: functional; details: A-375
[3] = inhibitors of TRPM1-promoter reporter in SK-MEL-5 – cell-based, luciferase, dry powder, set 9, MITF inhibitor project, dose response (AID 651588); format: functional
[4] = growth inhibition of MALME3 cells – cell-based, CellTiter-Glo luminescence, dry powder, set 5, orthogonal assay for MITF inhibitor project, dose response (AID 651584); format: functional; details: MALME-3
[5] = MITF Measured in Cell-Based System Using Plate Reader - 2084-01_Inhibitor_Dose_DryPowder_Activity_Set7.; format: functional
[6] = MITF Orthogonal Assay: MALME3 CTG Assay Measured in Cell-Based System Using Plate Reader - 2084-04_Inhibitor_Dose_DryPowder_Activity_Set6.; format: functional; details: MALME-3
[7] = cytotoxicity in MITF-independent A375 cells – cell-based, CellTiter-Glo luminescence, dry powder, set 4, counter-screen for MITF inhibitor project, dose response (AID 624364); format: functional; details: A-375;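 note: A375 melanoma cells are MITF independent so this is a counter screen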
[8] = cytotoxicity in melanoma parental cells – cell-based, CellTiter-Glo, dry powder, set 6, MITF inhibitor project, dose response (AID 624429); format: functional; details: SK-MEL-5
[9] = growth inhibition of SK-MEL-5 melanoma cells – cell-based, CellTiter-Glo luminescence, dry powder, set 8, orthogonal assay for MITF inhibitor project, dose response (AID 651586); format: functional
[10] = MITF Orthogonal Assay: SK-MEL-5 CTG Assay Measured in Cell-Based System Using Plate Reader - 2084-02_Inhibitor_Dose_DryPowder_Activity_Set5.; format: functional
[11] = melanocyte viability loss, MITF-dependent cells, cell-based, plate reader, dry powder, cytotoxicity control, dose response (AID 651920); format: functional
[12] = MITF Measured in Cell-Based System Using Plate Reader - 2084-01_Inhibitor_Dose_DryPowder_Activity_Set6.; format: functional
[13] = target: T1, Protein RecA (Mycobacterium tuberculosis, UniProt P9WHJ3); experiment: Fluorescence Cell-Free Homogeneous Dose Retest to Identify Inhibitors of RecA-Intein Splicing Activity. [Related pubchem assays (depositor defined):AID2097, AID2223, AID489010, AID492950]; format: functional
T1 sequence (P9WHJ3 whole entry): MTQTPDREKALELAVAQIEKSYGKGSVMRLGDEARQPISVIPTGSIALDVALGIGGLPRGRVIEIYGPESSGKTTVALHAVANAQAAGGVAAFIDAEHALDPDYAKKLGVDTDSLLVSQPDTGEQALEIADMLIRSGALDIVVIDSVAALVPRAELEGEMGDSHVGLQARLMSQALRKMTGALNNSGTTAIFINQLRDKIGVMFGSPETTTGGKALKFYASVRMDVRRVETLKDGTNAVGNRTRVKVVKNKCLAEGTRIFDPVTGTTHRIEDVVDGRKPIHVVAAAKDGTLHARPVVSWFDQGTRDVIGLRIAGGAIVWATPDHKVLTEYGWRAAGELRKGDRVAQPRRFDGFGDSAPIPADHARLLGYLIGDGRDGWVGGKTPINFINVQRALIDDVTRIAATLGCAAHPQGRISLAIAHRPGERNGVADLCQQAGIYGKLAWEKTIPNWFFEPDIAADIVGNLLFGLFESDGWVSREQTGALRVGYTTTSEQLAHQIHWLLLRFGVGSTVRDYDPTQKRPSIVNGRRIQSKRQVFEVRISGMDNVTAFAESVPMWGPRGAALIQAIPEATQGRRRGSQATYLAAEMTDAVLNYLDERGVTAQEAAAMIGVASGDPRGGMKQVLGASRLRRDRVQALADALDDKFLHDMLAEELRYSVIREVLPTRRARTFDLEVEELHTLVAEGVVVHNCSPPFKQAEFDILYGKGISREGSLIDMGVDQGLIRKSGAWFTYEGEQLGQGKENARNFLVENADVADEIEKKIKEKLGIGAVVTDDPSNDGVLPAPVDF

[14] = tested on: Streptococcus sp. 'group A'; experiment: Streptococcus pyogenes SK(-)GAS viability under kanamycin – luminescence, BacTiterGlo, confirmation, counter-screen for streptokinase expression inhibitor project, dose response (AID 1900); format: functional, organism-based
[15] = target: T2, Replicative DNA helicase DnaB (Mycobacterium tuberculosis, UniProt P9WMR3); experiment: DnaB intein splicing inhibitors, dose response, biochemical, cell-free fluorescence (AID 449749); format: functional
T2 sequence (P9WMR3 whole entry): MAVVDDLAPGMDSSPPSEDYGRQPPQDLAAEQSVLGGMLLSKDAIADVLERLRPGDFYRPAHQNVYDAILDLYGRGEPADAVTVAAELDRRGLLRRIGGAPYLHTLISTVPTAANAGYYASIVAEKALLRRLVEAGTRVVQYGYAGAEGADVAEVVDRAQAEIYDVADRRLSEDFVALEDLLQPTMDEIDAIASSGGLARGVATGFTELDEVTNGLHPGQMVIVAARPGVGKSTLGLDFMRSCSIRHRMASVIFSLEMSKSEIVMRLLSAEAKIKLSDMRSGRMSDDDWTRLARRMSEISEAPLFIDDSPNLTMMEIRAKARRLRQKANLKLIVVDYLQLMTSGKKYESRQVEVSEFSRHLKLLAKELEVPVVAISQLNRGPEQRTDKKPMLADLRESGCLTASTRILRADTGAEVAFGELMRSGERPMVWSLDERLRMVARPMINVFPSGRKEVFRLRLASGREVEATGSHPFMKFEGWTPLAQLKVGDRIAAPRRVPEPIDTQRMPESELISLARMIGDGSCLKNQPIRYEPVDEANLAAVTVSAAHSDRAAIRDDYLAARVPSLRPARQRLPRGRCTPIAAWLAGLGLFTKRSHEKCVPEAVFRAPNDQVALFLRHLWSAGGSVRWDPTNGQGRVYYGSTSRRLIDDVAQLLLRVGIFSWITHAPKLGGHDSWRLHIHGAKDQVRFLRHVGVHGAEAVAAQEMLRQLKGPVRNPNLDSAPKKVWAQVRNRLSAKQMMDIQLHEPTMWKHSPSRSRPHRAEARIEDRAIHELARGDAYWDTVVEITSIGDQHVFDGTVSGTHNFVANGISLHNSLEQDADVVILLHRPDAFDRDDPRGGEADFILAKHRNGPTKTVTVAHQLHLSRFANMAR

[16] = target: T3, Caspase-6 (Homo sapiens, UniProt P55212); experiment: inhibition of CASP6 peptide cleavage – biochemical, VEID-R110 fluorescence, cherry-pick, dose response (AID 720632)
T3 sequence (P55212 whole entry): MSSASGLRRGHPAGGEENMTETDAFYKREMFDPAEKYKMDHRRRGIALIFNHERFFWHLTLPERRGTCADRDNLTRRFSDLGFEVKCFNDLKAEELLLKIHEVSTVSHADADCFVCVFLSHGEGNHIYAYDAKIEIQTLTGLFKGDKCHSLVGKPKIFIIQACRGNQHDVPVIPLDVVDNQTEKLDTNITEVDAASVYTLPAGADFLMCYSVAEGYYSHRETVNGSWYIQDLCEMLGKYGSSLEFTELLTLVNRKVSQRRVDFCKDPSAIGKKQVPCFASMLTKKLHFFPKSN

[17] = target: T4, Streptokinase A (Streptococcus pyogenes serotype M1, UniProt P10520); experiment: viability-normalized secreted streptokinase activity reduction – plasminogen activation absorbance, OD405, dose response (AID 1914); format: functional, Streptococcus pyogenes M1 GAS;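 note: secreted streptokinase activity via plasminogen activation per viability signal from cell pellet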
T4 sequence (P10520 whole entry): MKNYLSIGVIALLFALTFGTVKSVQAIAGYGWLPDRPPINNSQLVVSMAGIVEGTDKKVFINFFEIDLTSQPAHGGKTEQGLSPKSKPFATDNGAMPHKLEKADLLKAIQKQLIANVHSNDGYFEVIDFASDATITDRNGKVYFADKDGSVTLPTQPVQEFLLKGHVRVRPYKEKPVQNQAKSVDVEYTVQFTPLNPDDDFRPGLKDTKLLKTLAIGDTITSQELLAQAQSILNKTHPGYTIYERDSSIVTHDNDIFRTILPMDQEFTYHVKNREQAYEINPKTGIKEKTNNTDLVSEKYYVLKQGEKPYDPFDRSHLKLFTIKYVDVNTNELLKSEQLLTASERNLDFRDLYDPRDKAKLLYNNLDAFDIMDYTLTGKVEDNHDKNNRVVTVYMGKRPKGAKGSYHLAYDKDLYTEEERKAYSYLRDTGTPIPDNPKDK

[18] = tested on: INS1; experiment: INS-1E survival protection against cytokine death – cell-based, luminescence, retest, dose response (AID 449756); format: functional; details: Rattus norvegicus;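 note: cell death triggered by IL-1 beta plus TNF-alpha plus IFN-gamma mixture; protective hits raise ATP signal compared with cytokine alone wells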
[19] = target: E3 ubiquitin-protein ligase UHRF1 (Homo sapiens, UniProt Q96T88); experiment: Counterscreen for inhibitors of 5-meCpG-binding domain protein 2 (MBD2): TRFRET-based biochemical high throughput dose response assay to identify inhibitors of binding of ubiquitin-like with PHD and ring finger domains 1 (UHRF1) to methylated oligonucleotide.
[20] = tested on: Streptococcus; experiment: GAS UMAA2166 growth inhibition – luminescence, BacTiterGlo, counter-screen for streptokinase expression inhibitor project, dose response (AID 1915); format: functional, organism-based;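 note: potency for reduction of bacterial viability or growth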
[21] = Intein inhibitors as potential Tuberculosis drugs, a cytotoxicity screen. [Related pubchem assays (depositor defined):AID2221, AID2223, AID434968, AID435010, AID449749, AID449750, AID489010]; format: functional
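Throughout, for CC50: cells exposed to compound for 72 hours before luminescence readout.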

Chain of E3 ubiquitin-protein ligase UHRF1 (Q96T88 whole entry, the tested form may be a part): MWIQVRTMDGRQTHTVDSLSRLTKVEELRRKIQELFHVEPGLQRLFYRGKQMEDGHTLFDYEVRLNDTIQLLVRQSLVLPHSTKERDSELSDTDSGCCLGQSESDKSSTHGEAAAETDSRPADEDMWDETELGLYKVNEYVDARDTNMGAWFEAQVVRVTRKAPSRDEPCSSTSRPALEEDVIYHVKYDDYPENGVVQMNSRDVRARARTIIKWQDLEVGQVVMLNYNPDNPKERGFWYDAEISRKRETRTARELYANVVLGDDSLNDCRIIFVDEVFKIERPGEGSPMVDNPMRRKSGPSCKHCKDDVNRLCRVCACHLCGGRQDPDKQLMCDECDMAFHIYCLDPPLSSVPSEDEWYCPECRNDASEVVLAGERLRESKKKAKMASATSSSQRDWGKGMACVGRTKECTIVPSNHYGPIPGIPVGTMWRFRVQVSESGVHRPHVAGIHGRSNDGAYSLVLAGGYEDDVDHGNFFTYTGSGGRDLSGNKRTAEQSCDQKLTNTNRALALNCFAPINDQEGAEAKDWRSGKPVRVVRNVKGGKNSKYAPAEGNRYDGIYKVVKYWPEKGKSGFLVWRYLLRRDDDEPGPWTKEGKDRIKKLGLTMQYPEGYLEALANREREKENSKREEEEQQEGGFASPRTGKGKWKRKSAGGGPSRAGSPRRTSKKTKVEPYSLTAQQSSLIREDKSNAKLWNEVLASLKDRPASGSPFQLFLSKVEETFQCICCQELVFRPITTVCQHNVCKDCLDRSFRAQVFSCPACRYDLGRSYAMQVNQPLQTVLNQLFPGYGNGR

C=CCn1c(=O)c2c(nc3n2CC(C)CN3Cc2ccccc2)n(C)c1=O (stereo unspecified)
EC50 [1]: > 167 µM (inactive)

O=C1C=C(NS(=O)(=O)c2cccs2)C(=O)c2ccccc21
AC50 [2]: > 70 µM (inactive) | AC50 [3]: 16.9 µM (active) | AC50 [4]: 57.6 µM (active) | AC50 [5]: 5.89 µM (active) | AC50 [6]: 57.6 µM (active) | AC50 [7]: > 70 µM (inactive) | AC50 [8]: 13.3 µM (active) | AC50 [9]: 32.8 µM (active) | AC50 [10]: 15.8 µM (active) | AC50 [11]: 17.6 µM (active) | AC50 [12]: 6.01 µM (active)

CCN(CC)CCNC(=O)c1ccc2c(c1NCCO)C(=O)c1ccccc1C2=O
EC50 [13]: 0.524 µM (active) | EC50 [14]: 12.9 µM (active) | AC50 [15]: 4.5 µM (active) | AC50 [16]: 5.96 µM (active) | EC50 [17]: > 150 µM (not active) | AC50 [18]: 4.09 µM (active) | IC50 [19]: > 43.8 µM (inactive) | EC50 [20]: > 150 µM (not active) | CC50 [21]: 26.2 µM (active)
